Measured values published in patent US20070254843A1, “Methods for treating bone associated diseases by the use of methionine aminopeptidase-2 inhibitors” (Praecis Pharmaceuticals Incorporated, priority 2006, published 2007).

Experiments:
MetAP-2 = target: T1, MetAP-2 (Rattus norvegicus, UniProt P38062); experiment: MetAP-2 pharmacodynamic assay in wbc lysates; type: in vivo; settings: po, PG-PS arthritis rats, read-out: MetAP-2 in wbc inhibited relative to vehicle-treated group
T1 construct: wbc from animals of each study group were pooled and cell lysates were prepared as previously described; from tissue; host or cells: white blood cells (wbc) of female Lewis rats, pooled per study group and lysed
Protocol: MetAP-2 pharmacodynamic assay. The MetAP-2 assay measures the amount of uninhibited MetAP-2 in cells or tissues which has not been derivitized by prior treatment with the MetAP-2 inhibitor (Bernier (2004) Proc. Natl. Acad. Sci. USA 101: 10768-10773 and Bernier (2005) J. Cell. Biochem. 95: 1191-1203). Briefly, wbc from animals of each study group were pooled and cell lysates were prepared as previously described (Bernier (2004) Proc. Natl. Acad. Sci. USA 101: 10768-10773 and Bernier (2005) J. Cell. Biochem. 95: 1191-1203). 10 μg to 20 μg of wbc protein was incubated with a biotinylated analog of the MetAP-2 inhibitor which covalently binds to the catalytic site of MetAP-2. The biotinylated MetAP-2-inhibitor complex was captured on a plate with immobilized streptavidin (Pierce), and detected with the MetAP-2 antibody CM33 (0.5 μg/ml), followed by horseradish peroxidase-conjugated goat anti-rabbit IgG secondary antibody. The amount of uninhibited MetAP-2 was determined by measuring the absorption at 450 nm using a Labsystems Multiskan plate spectrophotometer. Human recombinant MetAP-2 (Mediomics), pre-bound to the biotinylated MetAP-2 inhibitor, was used to generate the standard curve. The detection limit of this assay was 0.47 ng MetAP-2 protein/mg wbc protein.
Since the MetAP-2 inhibitor had the ability to inhibit multiple cell types critical for pathogenesis of the bone associated disease, RA, in vitro, it was hypothesized that the observations from the in vitro studies (Example 1) would translate into protection from disease in animals in the PG-PS model of arthritis. The progression of disease in this model follows a biphasic mode, with an early acute, predominantly neutrophil-driven phase which persists to days 6-7, followed by a chronic, T cell dependent phase (evident around day 12), which is characterized by chronic inflammation and erosive synovitis (Palombella (1998) Proc. Natl. Acad. Sci. USA 95:15671-15676). Therapeutic dosing of animals administered the MetAP-2 inhibitor orally (p.o.) at 1, 5 and 10 mg/kg, every other day (qod), or vehicle started at day 15 after the chronic destructive phase of the disease was established and terminated on day 31. […] The amount of uninhibited MetAP-2 in wbc of animals from all treatment groups was measured after conclusion of the study, using the MetAP-2 pharmacodynamic assay (Bernier (2004) Proc. Natl. Acad. Sci. USA 101: 10768-10773 and Bernier (2005) J. Cell. Biochem. 95: 1191-1203). […]

COMP = experiment: Serum COMP ELISA in rat PG-PS arthritis model; type: in vivo; settings: 1, 5 and 10 mg/kg p.o. qod, after conclusion of the study
Protocol: (§1) ELISAs for cartilage and bone biochemical turnover markers. The amount of COMP in serum was measured with a competitive enzyme immunoassay (MD Biosciences, Inc) according to the manufacturer's instructions. The detection limit of this ELISA was 0.2 U/L. Helical peptide (amino acids 620 to 633) from the α1 chain of bone-specific human CTX-I was measured either in cell culture supernatants of primary human OC precursors cultured as described above, or in urine with a competitive enzyme immunoassay (Quidel Corporation). The detection limit of this ELISA was 8 μg/L. All CTX-I measurements in urine were corrected for urinary creatinine excretion for each sample to account for potential differences in renal clearance rates among the different study groups. Urinary creatinine was measured with a colorimetric assay (Quidel Corporation).
The destruction of articular joints is the radiographic hallmark of bone associated disease. Therefore, the activity of the MetAP-2 inhibitor on these destructive processes was assessed by measuring biochemical turnover markers of cartilage erosion and bone resorption. […] The amount of COMP in serum of animals treated therapeutically with the MetAP-2 inhibitor (1, 5, and 10 mg/kg, p.o., qod), or vehicle was measured after conclusion of the study.

PG-PS-induced arthritis = experiment: Rat model of PG-PS induced arthritis, paw swelling; type: in vivo; settings: 1, 5 and 10 mg/kg p.o. qod, day 15 to 31, versus vehicle
Protocol: Rat model of PG-PS induced arthritis. Female Lewis rats (109-130 g) were received from Charles River Laboratories. Food and water were available ad libitum. PG-PS (25 mg/kg) was injected i.p. on day 1 and responding animals were randomized into treatment groups on day 14. Vehicle (11% HPCD in PBS), dex and the MetAP-2 inhibitor (1, 5, and 10 mg/kg) were administered p.o., qod. Paw swelling was monitored using a plethysmometer (Stoelting Co., Woodale, Ill.) according to instrument specifications. The volumes of the two hind paws were measured and averaged on day 1, 4, 6, 8, 10, 13, 15, 17, 20, 22, 23, 27, 29 and 31. Ten animals were assigned to each group except the vehicle group and animals which received no PG-PS, but 10 mg/kg MetAP-2 inhibitor (n=4).

HUVEC = settings: 100 nM; cited from earlier work
[1] = system: primary human OC cultured on human bone particles; experiment: Bone resorption in vitro, CTX-I ELISA of culture supernatant; type: cell-based
Protocol: as §1
To determine whether the inhibition of OC differentiation by the MetAP-2 inhibitor in vitro correlated with the inhibition of bone resorption in vitro, primary human OC were cultured on a thin layer of human bone particles in the presence of M-CSF and RANKL, and vehicle or increasing concentrations of the MetAP-2 inhibitor. […] After 7 days, the culture supernatant was collected and the amount of bone-specific collagen type I C-terminal helical peptide (CTX-I) was measured by ELISA.

T1 sequence (P38062 whole entry): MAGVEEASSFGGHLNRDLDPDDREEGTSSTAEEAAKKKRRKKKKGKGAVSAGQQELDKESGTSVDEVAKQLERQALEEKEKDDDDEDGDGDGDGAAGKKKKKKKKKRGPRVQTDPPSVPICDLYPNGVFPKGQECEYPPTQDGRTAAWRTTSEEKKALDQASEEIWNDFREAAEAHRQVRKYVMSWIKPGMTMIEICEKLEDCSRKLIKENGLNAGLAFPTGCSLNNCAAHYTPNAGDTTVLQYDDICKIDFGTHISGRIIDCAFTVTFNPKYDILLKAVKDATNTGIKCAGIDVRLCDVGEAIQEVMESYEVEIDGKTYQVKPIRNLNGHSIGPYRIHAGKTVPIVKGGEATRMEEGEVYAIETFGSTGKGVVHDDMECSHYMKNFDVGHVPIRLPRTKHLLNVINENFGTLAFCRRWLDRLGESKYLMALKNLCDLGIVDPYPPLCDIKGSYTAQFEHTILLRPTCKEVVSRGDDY

inhibition at 1 mg/kg (MetAP-2; 1 mg/kg p.o. qod): ≥ 60%
inhibition at 5 mg/kg (MetAP-2; 5 mg/kg p.o. qod): ≥ 95%
inhibition at 10 mg/kg (MetAP-2; 10 mg/kg p.o. qod): ≥ 95%
IC50 ([1]; 168 h, 7 days, M-CSF and RANKL, human bone particles, read-out: IC50, bone resorbing activity of OC (CTX-I)): ≤ 100 pM
SMILES: CO[C@@H]1[C@H](OC(=O)N[C@@H](C(N)=O)C(C)C)CC[C@]2(CO2)[C@H]1[C@@]1(C)O[C@@H]1CC=C(C)C [MetAP-2 inhibitor, (1-Carbamoyl-2-methyl-propyl)-carbamic acid-(3R,4S,5S,6R)-5-methoxy-4-[(2R,3R)-2-methyl-3-(3-methyl-but-2-enyl)-oxiranyl]-1-oxa-spiro[2,5]oct-6-yl ester]
systemic level of COMP in serum (COMP): significant decrease
joint swelling and inflammation, paw swelling of the hind limbs (PG-PS-induced arthritis): significant amelioration
induction of apoptosis in HUVEC (HUVEC): did not induce apoptosis
degree of inhibition of bone resorption ([1]; at 1 nM and 10 nM, versus E-64 at 100 nM): comparable to the inhibitory activity of E-64 at 100 nM
